# According to patent US6706663B2, “Herbicidal 3-heterocyclic substituted benzisothiazole and benzisoxazole compounds” (Wyeth, priority 2000, dated 2004):
# What was measured:
# [1] = tested on: ABUTH (Abutilon theophrasti); experiment: Postemergence herbicidal evaluation; format: in vivo, Medic.
# Summary of the method: (§1)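 Seedlings grown for about two weeks were sprayed postemergence and then kept under standard greenhouse care. Injury was rated visually 4–5 weeks after treatment on a 0–9 scale against untreated controls, and ratings from repeat tests were averaged.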
# GALAP (Galium aparine) [2] = experiment: Postemergence herbicidal evaluation; format: in vivo
# Summary of the method: as §1
# [3] = tested on: IPOHE (Ipomoea hederacea); experiment: Postemergence herbicidal evaluation; format: in vivo, (L.) Jacq.
# Summary of the method: as §1
# SETVI (Setaria viridis) [4] = experiment: Postemergence herbicidal evaluation; format: in vivo, (L.) Beau
# Summary of the method: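 Seedlings about two weeks old were sprayed with compound in 50/50 acetone/water plus 0.5% TWEEN 20, at the equivalent of about 0.0040 to 1.000 kg/ha. Plants were kept in a greenhouse and visually rated 0-9 against a control four to five weeks after treatment. Repeat tests were averaged.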
# [5] = tested on: GLXMAW (Soybean, Williams); experiment: Postemergence herbicidal evaluation; format: in vivo, Glycine max, (L.) Merr. cv Williams
# Summary of the method: as §1
# [6] = tested on: TRZAWR (Wheat, Winter, cv Riband); experiment: Postemergence herbicidal evaluation; format: in vivo, Triticum aestivum
# Summary of the method: as §1
# [7] = tested on: ABUTH (Abutilon theophrasti); experiment: Preemergence herbicidal evaluation; format: in vivo, Medic.; details: preemergence, rated 4-5 weeks after treatment
# [8] = tested on: AMBEL (Ambrosia artemisifolia); experiment: Preemergence herbicidal evaluation; format: in vivo, L.; details: preemergence, rated 4-5 weeks after treatment
# Summary of the method: (§2)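 Test compound is applied in aqueous acetone to cups just after seeding. Cups are watered and maintained on greenhouse benches. Each cup is scored 0–9 by eye relative to a control after four to five weeks.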
# [9] = tested on: CASOB (Cassia obtusifolia); experiment: Preemergence herbicidal evaluation; format: in vivo, L.; details: preemergence, rated 4-5 weeks after treatment
# Summary of the method: as §2
# [10] = tested on: CHEAL (Chenopodium album); experiment: Preemergence herbicidal evaluation; format: in vivo, L.; details: preemergence, rated 4-5 weeks after treatment
# Summary of the method: as §2
# GALAP (Galium aparine) [11] = experiment: Preemergence herbicidal evaluation; format: in vivo; details: preemergence, rated 4-5 weeks after treatment
# Summary of the method: as §2
# [12] = tested on: ECHCG (Echinochloa crus-galli); experiment: Preemergence herbicidal evaluation; format: in vivo, (L.) Beau; details: preemergence, rated 4-5 weeks after treatment
# Summary of the method: as §2
# SETVI (Setaria viridis) [13] = experiment: Preemergence herbicidal evaluation; format: in vivo, (L.) Beau; details: preemergence, rated 4-5 weeks after treatment
# Summary of the method: as §2
# ZEAMX (Corn, Field) = experiment: Preemergence herbicidal evaluation; format: in vivo, Zea mays, L.; details: preemergence, rated 4-5 weeks after treatment
# [14] = tested on: CYPSE (Cyperus serotinus); experiment: Flooded paddy, preemergence weed control; format: in vivo, Rottb.; details: rated 3-4 weeks after treatment, 0-9 rating scale
# Summary of the method: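 Herbicidal effect was scored visually on a 0–9 scale against an untreated control 3–4 weeks after treatment. Compounds were applied preemergence as 50/50 v/v aqueous/acetone mixtures into flood water (1.5–3 cm deep over silt loam), at roughly 0.0080 to 0.1250 kg/ha active ingredient.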
# [15] = tested on: MOOVA (Monochoria vaginalis); experiment: Flooded paddy, preemergence weed control; format: in vivo, Presl.; details: rated 3-4 weeks after treatment, 0-9 rating scale
# Summary of the method: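 Visual 0–9 ratings versus controls scored stand, vigor, malformation, size, chlorosis and overall appearance. Plants grew from seeds or propagating organs sown 0.5 cm deep in silt loam, with water held 1.5–3 cm above the soil for the whole test under greenhouse care.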
# ORYSAT (Rice, Tebonnet) = experiment: Flooded paddy, post-transplant rice tolerance; format: in vivo, Oryza sativa, (L.) Tebonnet; details: flooded paddy, post-transplant rice, rated 3-4 weeks after treatment, 0-9 rating scale
# Summary of the method: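 Visual 0–9 injury rating against a control, covering stand, vigor, malformation, size, chlorosis and overall appearance. Treatment was post-transplant onto flooded containers (water 1.5–3 cm deep, silt loam) holding two ten-day-old cv. Tebonnet seedlings, maintained on greenhouse benches.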
smiles,measurement,setting,value
"Cc1cscc1-c1nsc2ccc(-n3c(=O)cc(C(F)(F)F)n(C)c3=O)cc12 [Compound 26, 1-methyl-3-[3-(4-methyl-3-thienyl)-1,2-benzisothiazol-5-yl]-6-(trifluoromethyl)uracil]","Postemergence herbicidal rating, ABUTH",[1]; rate 0.0320 kg/ha,9.0
same,"Postemergence herbicidal rating, ABUTH",[1]; rate 0.0620 kg/ha,9.0
same,"Postemergence herbicidal rating, GALAP",GALAP (Galium aparine) [2]; rate 0.0320 kg/ha,5.0
same,"Postemergence herbicidal rating, GALAP",GALAP (Galium aparine) [2]; rate 0.0620 kg/ha,6.0
same,"Postemergence herbicidal rating, IPOHE",[3]; rate 0.0320 kg/ha,9.0
same,"Postemergence herbicidal rating, IPOHE",[3]; rate 0.0620 kg/ha,9.0
same,"Postemergence herbicidal rating, SETVI",SETVI (Setaria viridis) [4]; rate 0.0320 kg/ha,7.0
same,"Postemergence herbicidal rating, SETVI",SETVI (Setaria viridis) [4]; rate 0.0620 kg/ha,9.0
same,"Postemergence herbicidal rating, GLXMAW",[5]; rate 0.0320 kg/ha,6.0
same,"Postemergence herbicidal rating, GLXMAW",[5]; rate 0.0620 kg/ha,6.5
same,"Postemergence herbicidal rating, TRZAWR",[6]; rate 0.0320 kg/ha,3.5
same,"Postemergence herbicidal rating, TRZAWR",[6]; rate 0.0620 kg/ha,4.5
same,ABUTH preemergence herbicidal rating,[7]; Rate 0.0620 kg/ha,4.0
same,ABUTH preemergence herbicidal rating,[7]; Rate 0.1250 kg/ha,9.0
same,ABUTH preemergence herbicidal rating,[7]; Rate 0.2500 kg/ha,9.0
same,AMBEL preemergence herbicidal rating,[8]; Rate 0.0620 kg/ha,3.0
same,AMBEL preemergence herbicidal rating,[8]; Rate 0.1250 kg/ha,6.0
same,AMBEL preemergence herbicidal rating,[8]; Rate 0.2500 kg/ha,8.5
same,CASOB preemergence herbicidal rating,[9]; Rate 0.0620 kg/ha,1.0
same,CASOB preemergence herbicidal rating,[9]; Rate 0.1250 kg/ha,3.5
same,CASOB preemergence herbicidal rating,[9]; Rate 0.2500 kg/ha,6.0
same,CHEAL preemergence herbicidal rating,[10]; Rate 0.0620 kg/ha,9.0
same,CHEAL preemergence herbicidal rating,[10]; Rate 0.1250 kg/ha,9.0
same,CHEAL preemergence herbicidal rating,[10]; Rate 0.2500 kg/ha,9.0
same,GALAP preemergence herbicidal rating,GALAP (Galium aparine) [11]; Rate 0.0620 kg/ha,7.0
same,GALAP preemergence herbicidal rating,GALAP (Galium aparine) [11]; Rate 0.1250 kg/ha,7.0
same,GALAP preemergence herbicidal rating,GALAP (Galium aparine) [11]; Rate 0.2500 kg/ha,9.0
same,ECHCG preemergence herbicidal rating,[12]; Rate 0.0620 kg/ha,6.5
same,ECHCG preemergence herbicidal rating,[12]; Rate 0.1250 kg/ha,9.0
same,ECHCG preemergence herbicidal rating,[12]; Rate 0.2500 kg/ha,9.0
same,SETVI preemergence herbicidal rating,SETVI (Setaria viridis) [13]; Rate 0.0620 kg/ha,9.0
same,SETVI preemergence herbicidal rating,SETVI (Setaria viridis) [13]; Rate 0.1250 kg/ha,9.0
same,SETVI preemergence herbicidal rating,SETVI (Setaria viridis) [13]; Rate 0.2500 kg/ha,9.0
same,ZEAMX preemergence herbicidal rating,"ZEAMX (Corn, Field); Rate 0.0620 kg/ha",2.5
same,ZEAMX preemergence herbicidal rating,"ZEAMX (Corn, Field); Rate 0.1250 kg/ha",3.5
same,ZEAMX preemergence herbicidal rating,"ZEAMX (Corn, Field); Rate 0.2500 kg/ha",6.5
same,"herbicidal rating, CYPSE",[14]; rate 0.0320 kg/ha,0.0
same,"herbicidal rating, CYPSE",[14]; rate 0.1250 kg/ha,3.0
same,"herbicidal rating, MOOVA",[15]; rate 0.0080 kg/ha,9.0
same,"herbicidal rating, MOOVA",[15]; rate 0.0320 kg/ha,9.0
same,"herbicidal rating, MOOVA",[15]; rate 0.1250 kg/ha,9.0
same,"herbicidal rating, ORYSAT (rice tolerance)","ORYSAT (Rice, Tebonnet); rate 0.0080 kg/ha",0.0
same,"herbicidal rating, ORYSAT (rice tolerance)","ORYSAT (Rice, Tebonnet); rate 0.0320 kg/ha",2.0
same,"herbicidal rating, ORYSAT (rice tolerance)","ORYSAT (Rice, Tebonnet); rate 0.1250 kg/ha",4.3
"Cc1cc(C)c(-c2nsc3ccc(-n4c(=O)cc(C(F)(F)F)n(C)c4=O)cc23)s1 [Compound 27, 3-[3-(3,5-dimethyl-2-thienyl)-1,2-benzisothiazol-5-yl]-1-methyl-6-(trifluoromethyl)uracil]","Postemergence herbicidal rating, ABUTH",[1]; rate 0.0320 kg/ha,9.0
same,"Postemergence herbicidal rating, ABUTH",[1]; rate 0.0620 kg/ha,9.0
same,"Postemergence herbicidal rating, GALAP",GALAP (Galium aparine) [2]; rate 0.0320 kg/ha,2.0
same,"Postemergence herbicidal rating, GALAP",GALAP (Galium aparine) [2]; rate 0.0620 kg/ha,4.0
same,"Postemergence herbicidal rating, IPOHE",[3]; rate 0.0320 kg/ha,9.0
same,"Postemergence herbicidal rating, IPOHE",[3]; rate 0.0620 kg/ha,9.0
same,"Postemergence herbicidal rating, SETVI",SETVI (Setaria viridis) [4]; rate 0.0320 kg/ha,7.0
same,"Postemergence herbicidal rating, SETVI",SETVI (Setaria viridis) [4]; rate 0.0620 kg/ha,9.0
same,"Postemergence herbicidal rating, GLXMAW",[5]; rate 0.0320 kg/ha,6.5
same,"Postemergence herbicidal rating, GLXMAW",[5]; rate 0.0620 kg/ha,6.0
same,"Postemergence herbicidal rating, TRZAWR",[6]; rate 0.0320 kg/ha,5.0
same,"Postemergence herbicidal rating, TRZAWR",[6]; rate 0.0620 kg/ha,5.5
same,ABUTH preemergence herbicidal rating,[7]; Rate 0.0620 kg/ha,5.0
same,ABUTH preemergence herbicidal rating,[7]; Rate 0.1250 kg/ha,6.0
same,ABUTH preemergence herbicidal rating,[7]; Rate 0.2500 kg/ha,9.0
same,AMBEL preemergence herbicidal rating,[8]; Rate 0.0620 kg/ha,5.0
same,AMBEL preemergence herbicidal rating,[8]; Rate 0.1250 kg/ha,5.0
same,AMBEL preemergence herbicidal rating,[8]; Rate 0.2500 kg/ha,9.0
same,CASOB preemergence herbicidal rating,[9]; Rate 0.0620 kg/ha,1.0
same,CASOB preemergence herbicidal rating,[9]; Rate 0.1250 kg/ha,5.0
same,CASOB preemergence herbicidal rating,[9]; Rate 0.2500 kg/ha,4.0
same,CHEAL preemergence herbicidal rating,[10]; Rate 0.0620 kg/ha,9.0
same,CHEAL preemergence herbicidal rating,[10]; Rate 0.1250 kg/ha,9.0
same,CHEAL preemergence herbicidal rating,[10]; Rate 0.2500 kg/ha,9.0
same,GALAP preemergence herbicidal rating,GALAP (Galium aparine) [11]; Rate 0.0620 kg/ha,9.0
same,GALAP preemergence herbicidal rating,GALAP (Galium aparine) [11]; Rate 0.1250 kg/ha,7.0
same,GALAP preemergence herbicidal rating,GALAP (Galium aparine) [11]; Rate 0.2500 kg/ha,8.0
same,ECHCG preemergence herbicidal rating,[12]; Rate 0.0620 kg/ha,6.0
same,ECHCG preemergence herbicidal rating,[12]; Rate 0.1250 kg/ha,7.0
same,ECHCG preemergence herbicidal rating,[12]; Rate 0.2500 kg/ha,7.0
same,SETVI preemergence herbicidal rating,SETVI (Setaria viridis) [13]; Rate 0.0620 kg/ha,9.0
same,SETVI preemergence herbicidal rating,SETVI (Setaria viridis) [13]; Rate 0.1250 kg/ha,9.0
same,SETVI preemergence herbicidal rating,SETVI (Setaria viridis) [13]; Rate 0.2500 kg/ha,9.0
same,ZEAMX preemergence herbicidal rating,"ZEAMX (Corn, Field); Rate 0.0620 kg/ha",3.0
same,ZEAMX preemergence herbicidal rating,"ZEAMX (Corn, Field); Rate 0.1250 kg/ha",3.0
same,ZEAMX preemergence herbicidal rating,"ZEAMX (Corn, Field); Rate 0.2500 kg/ha",3.0
same,"herbicidal rating, CYPSE",[14]; rate 0.0080 kg/ha,0.0
same,"herbicidal rating, CYPSE",[14]; rate 0.0320 kg/ha,4.5
same,"herbicidal rating, CYPSE",[14]; rate 0.1250 kg/ha,6.0
same,"herbicidal rating, MOOVA",[15]; rate 0.0080 kg/ha,6.0
same,"herbicidal rating, MOOVA",[15]; rate 0.0320 kg/ha,9.0
same,"herbicidal rating, MOOVA",[15]; rate 0.1250 kg/ha,9.0
same,"herbicidal rating, ORYSAT (rice tolerance)","ORYSAT (Rice, Tebonnet); rate 0.0080 kg/ha",1.0
same,"herbicidal rating, ORYSAT (rice tolerance)","ORYSAT (Rice, Tebonnet); rate 0.0320 kg/ha",2.0
same,"herbicidal rating, ORYSAT (rice tolerance)","ORYSAT (Rice, Tebonnet); rate 0.1250 kg/ha",3.7
